Literature values as cited in article PMC11555526, “Development of 2-Aminoadenine-Based Proteolysis-Targeting Chimeras (PROTACs) as Novel Potent Degraders of Monopolar Spindle 1 and Aurora Kinases” (ACS Pharmacology & Translational Science, 2024).
pIC50: −log10 of the molar value.

Test system: human TTK
Parameters: method as in PMID 23940287, PMID 32338514, PMID 27905678, PMID 27437075, PMID 30232224
Conditions: literature values, introduction and Figure 1; cited from earlier work

SMILES | pIC50
COc1cc(S(C)(=O)=O)ccc1Nc1nc2ccc(-c3ccc(NC(=O)[C@H](C)c4ccc(F)cc4)cc3)cn2n1 [BAY1161909] | 9.00
Cc1cc(-c2cnn3c(NC[C@H]4C[C@@](C)(O)C4)cc(Oc4cccnc4)nc23)ccc1C(=O)NC1CC1 [CFI-402257] | 9.00
